± gives the standard deviation of the averaged measurements.
Columns and labels:
Settings in all cases: treatment time: 3 days
UT-SCC-106A [1] = test: maximal % inhibition of viability relative to DMSO; higher = stronger effect
In short: (§1)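 Viability was read with CellTiter-Glo 2.0 luminescence and scaled against vehicle (0.1% DMSO) and cell-killing control wells. The assay used HPV-negative HNSCC cell lines at 500 cells/well in 384-well plates, grown on plastic, on Matrigel or Myogel coatings (500 µg/mL), or embedded in Matrigel or Myogel plus rat collagen I, and treated for 3 days at five 10-fold concentrations. IC50, maximal inhibition and drug sensitivity score were derived from percent-inhibition dose–response curves fitted in the FIMM pipeline.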

UT-SCC-28 [2] = test: as above
In short: as §1

UT-SCC-14 [3] = test: as above
In short: as §1

UT-SCC-24A [4] = test: drug sensitivity score (DSS); higher = more sensitive
Description: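 HNSCC cell lines (500 cells/well, 384-well) were cultured on plastic, on top of (2D) or embedded (3D) in Matrigel or human leiomyoma matrix Myogel (500 ug/mL; Myogel 3D mixed with rat collagen I). Cells were treated for 3 days with 5 ten-fold concentrations of each drug, and viability was read by CellTiter-Glo. Suffixes _1/_2/_3 on drug names are replicates.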

UT-SCC-24A [5] = test: maximal % inhibition of viability relative to DMSO; higher = stronger effect
Description: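 HNSCC cell lines (500 cells/well, 384-well) were cultured on plastic, on top of (2D) or embedded (3D) in Matrigel or human leiomyoma matrix Myogel (500 ug/mL; Myogel 3D mixed with rat collagen I). Cells were treated for 3 days with 5 ten-fold concentrations of each drug, and viability was read by CellTiter-Glo. Viability was normalised to DMSO (0% inhibition) and 100 uM benzethonium chloride (100% inhibition) controls and fitted with the FIMM DSRT pipeline to give IC50 (nM), maximal % inhibition and the drug sensitivity score (DSS). Suffixes _1/_2/_3 on drug names are replicates.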

UT-SCC-73 = test: drug sensitivity score (DSS); higher = more sensitive; extreme values may be limits of the assay
In short: as §1

UT-SCC-44 = test: as above
In short: as §1

UT-SCC-106A [6] = test: as above
In short: as §1

UT-SCC-42A = test: as above
In short: as §1

UT-SCC-28 [7] = test: as above
In short: as §1

UT-SCC-81 = test: as above
In short: as §1

UT-SCC-8 = test: as above
In short: as §1

UT-SCC-24B = test: as above
In short: as §1

UT-SCC-14 [8] = test: as above
In short: as §1

UT-SCC-40 = test: as above
In short: as §1

UT-SCC-42B = test: as above
In short: as §1

[9] = culture condition: embedded in Matrigel
[10] = culture condition: embedded in Myogel + collagen I
[11] = culture condition: on top of Matrigel
[12] = culture condition: on top of Myogel
[13] = culture condition: plastic 2D (no matrix)

CC(=O)Nc1cccc(-n2c(=O)n(C3CC3)c(=O)c3c(Nc4ccc(I)cc4F)n(C)c(=O)c(C)c32)c1 [Trametinib]
maximal % inhibition of viability (UT-SCC-106A [1]; [9]): 51.5 ± 3.2%
maximal % inhibition of viability (UT-SCC-106A [1]; [10]): 15.1 ± 2.8%
maximal % inhibition of viability (UT-SCC-106A [1]; [11]): 61.8 ± 3.4%
maximal % inhibition of viability (UT-SCC-106A [1]; [12]): 23.2 ± 8.1%
maximal % inhibition of viability (UT-SCC-106A [1]; [13]): 63.5 ± 1.5%
maximal % inhibition of viability (UT-SCC-28 [2]; [9]): 36.7 ± 7.8%
maximal % inhibition of viability (UT-SCC-28 [2]; [10]): 29.7 ± 26%
maximal % inhibition of viability (UT-SCC-28 [2]; [11]): 35.1 ± 7.7%
maximal % inhibition of viability (UT-SCC-28 [2]; [13]): 21.1 ± 4.4%
maximal % inhibition of viability (UT-SCC-14 [3]; [9]): 43.2 ± 5.3%
maximal % inhibition of viability (UT-SCC-14 [3]; [10]): 31 ± 10%
maximal % inhibition of viability (UT-SCC-14 [3]; [11]): 37.1 ± 8.6%
maximal % inhibition of viability (UT-SCC-14 [3]; [12]): 22.9 ± 3%
maximal % inhibition of viability (UT-SCC-14 [3]; [13]): 24 ± 8.8%
drug sensitivity score (UT-SCC-24A [4]; [9]): 20.2 ± 1.9 DSS
drug sensitivity score (UT-SCC-24A [4]; [10]): 8.77 ± 2.7 DSS
drug sensitivity score (UT-SCC-24A [4]; [11]): 18.9 ± 1.5 DSS
drug sensitivity score (UT-SCC-24A [4]; [12]): 3.8 ± 1.6 DSS
drug sensitivity score (UT-SCC-24A [4]; [13]): 18.2 ± 2.1 DSS
maximal % inhibition of viability (UT-SCC-24A [5]; [9]): 74.7 ± 4%
maximal % inhibition of viability (UT-SCC-24A [5]; [10]): 48.6 ± 6.4%
maximal % inhibition of viability (UT-SCC-24A [5]; [11]): 69.5 ± 5.2%
maximal % inhibition of viability (UT-SCC-24A [5]; [12]): 33.1 ± 9.5%
maximal % inhibition of viability (UT-SCC-24A [5]; [13]): 62.4 ± 10%
drug sensitivity score (UT-SCC-73; [9]): 19.8 ± 3.1 DSS
drug sensitivity score (UT-SCC-73; [10]): 15.4 ± 3.3 DSS
drug sensitivity score (UT-SCC-73; [11]): 18.7 ± 3.7 DSS
drug sensitivity score (UT-SCC-73; [12]): 14.6 ± 1.9 DSS
drug sensitivity score (UT-SCC-73; [13]): 16.1 ± 3.1 DSS
drug sensitivity score (UT-SCC-44; [9]): 18.2 ± 0.7 DSS
drug sensitivity score (UT-SCC-44; [10]): 4.27 ± 1.7 DSS
drug sensitivity score (UT-SCC-44; [11]): 12.5 ± 1.8 DSS
drug sensitivity score (UT-SCC-44; [12]): 5.07 ± 3.6 DSS
drug sensitivity score (UT-SCC-44; [13]): 10.2 ± 1.6 DSS
drug sensitivity score (UT-SCC-106A [6]; [9]): 15.3 ± 2.4 DSS
drug sensitivity score (UT-SCC-106A [6]; [10]): 0.6 ± 0.6 DSS
drug sensitivity score (UT-SCC-106A [6]; [11]): 16.9 ± 1.2 DSS
drug sensitivity score (UT-SCC-106A [6]; [12]): 3.1 ± 2.4 DSS
drug sensitivity score (UT-SCC-106A [6]; [13]): 17.3 ± 0.72 DSS
drug sensitivity score (UT-SCC-42A; [9]): 7.6 ± 5.4 DSS
drug sensitivity score (UT-SCC-42A; [10]): 2.57 ± 2.8 DSS
drug sensitivity score (UT-SCC-42A; [11]): 10.5 ± 0.9 DSS
drug sensitivity score (UT-SCC-42A; [12]): 6.97 ± 0.8 DSS
drug sensitivity score (UT-SCC-42A; [13]): 5.87 ± 3.6 DSS
drug sensitivity score (UT-SCC-28 [7]; [9]): 5.9 ± 1.1 DSS
drug sensitivity score (UT-SCC-28 [7]; [10]): 3.83 ± 3.9 DSS
drug sensitivity score (UT-SCC-28 [7]; [11]): 7.33 ± 3.5 DSS
drug sensitivity score (UT-SCC-28 [7]; [13]): 4.33 ± 1.3 DSS
drug sensitivity score (UT-SCC-81; [9]): 31.1 ± 6 DSS
drug sensitivity score (UT-SCC-81; [10]): 3.93 ± 0.58 DSS
drug sensitivity score (UT-SCC-81; [11]): 18.2 ± 2.1 DSS
drug sensitivity score (UT-SCC-81; [12]): 4.77 ± 4 DSS
drug sensitivity score (UT-SCC-81; [13]): 7.57 ± 2.1 DSS
drug sensitivity score (UT-SCC-8; [9]): 9.37 ± 3.3 DSS
drug sensitivity score (UT-SCC-8; [10]): 3.9 ± 6.8 DSS
drug sensitivity score (UT-SCC-8; [11]): 6.63 ± 5 DSS
drug sensitivity score (UT-SCC-8; [12]): 4.7 ± 4 DSS
drug sensitivity score (UT-SCC-8; [13]): 4.93 ± 4 DSS
drug sensitivity score (UT-SCC-24B; [9]): 11 ± 1 DSS
drug sensitivity score (UT-SCC-24B; [10]): 10.3 ± 2.3 DSS
drug sensitivity score (UT-SCC-24B; [11]): 10.1 ± 1.1 DSS
drug sensitivity score (UT-SCC-24B; [12]): 6.67 ± 1.4 DSS
drug sensitivity score (UT-SCC-24B; [13]): 13.8 ± 0.95 DSS
drug sensitivity score (UT-SCC-14 [8]; [9]): 9.3 ± 2.1 DSS
drug sensitivity score (UT-SCC-14 [8]; [10]): 6.63 ± 3.8 DSS
drug sensitivity score (UT-SCC-14 [8]; [11]): 6.5 ± 3.7 DSS
drug sensitivity score (UT-SCC-14 [8]; [12]): 3.43 ± 1.8 DSS
drug sensitivity score (UT-SCC-14 [8]; [13]): 2.23 ± 1.9 DSS
drug sensitivity score (UT-SCC-40; [9]): 18.4 ± 4.2 DSS
drug sensitivity score (UT-SCC-40; [10]): 13.4 ± 2.6 DSS
drug sensitivity score (UT-SCC-40; [11]): 15.7 ± 2.8 DSS
drug sensitivity score (UT-SCC-40; [12]): 10.9 ± 1.8 DSS
drug sensitivity score (UT-SCC-40; [13]): 11.3 ± 3.5 DSS
drug sensitivity score (UT-SCC-42B; [9]): 17.6 ± 2.3 DSS
drug sensitivity score (UT-SCC-42B; [11]): 9.67 ± 0.84 DSS
drug sensitivity score (UT-SCC-42B; [12]): 1.4 ± 1.4 DSS
drug sensitivity score (UT-SCC-42B; [13]): 3.77 ± 2.9 DSS

Reference: the supplement of paper PMC7017272
